# Data: patent publication US9951057B2, “COMT inhibiting methods and compositions” (Lieber Institute for Brain Development, priority 2015, dated 2018)
# Target: T1, catechol-O-methyltransferase (COMT) (Homo sapiens, UniProt P21964)
# T1 construct: M51A variant) was expressed in HEK 293F cells
# T1 sequence (P21964 52-271 limits assumed): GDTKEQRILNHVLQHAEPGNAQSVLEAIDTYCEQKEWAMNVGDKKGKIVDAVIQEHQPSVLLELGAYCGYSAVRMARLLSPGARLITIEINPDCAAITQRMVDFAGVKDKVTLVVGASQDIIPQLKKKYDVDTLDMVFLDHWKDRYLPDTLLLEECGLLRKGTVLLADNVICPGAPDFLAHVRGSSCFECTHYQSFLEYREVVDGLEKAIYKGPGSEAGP
# Assay: COMT inhibition assay (HTRF, production of SAH from SAM)
# Type: biochemical
# Settings: recombinant human COMT, table does not say whether MB-COMT or S-COMT
# Protocol: The ability of compounds to inhibit the activity of catechol-O-methyltransferase (COMT) was determined by a homogenous time-resolved fluorescent (HTRF) assay (Lina et al, 2012; kit from CisBio, Codolet, France). This assay measures the production of S-adenosyl homocysteine (SAH) from the methyl donor S-adenosyl methionine. Recombinant human membrane bound COMT (MB-COMT; M51A variant) was expressed in HEK 293F cells using 293Fectin (Life Technologies, Gent, Belgium) and membranes prepared. The membranes were re-suspended in buffer (20 mM Tris/HCl pH 7; 10 mM glycerol; 2 mM MgCl2; 10 mM NaCl), aliquoted and stored at −80° C. Recombinant human soluble COMT (S-COMT), Val158 variant and a hexa-His tag on the N-terminus, was purified using Ni-NTA chromatography, the His tag removed and stored in buffer as above.
# For the human MB-COMT assay, membranes (62 ng/well) were incubated with SAM (20 μM final, CisBio) and dopamine (1.5 μM final; Sigma H8502, Diegem, Belgium) in the presence or absence of varying concentrations (typically 10 concentrations ranging from 10 μM to 0.1 nM) of compound for 40 min at 37° C. in 384-well microtitre plates (10 μl per well final volume). The reaction was terminated by the addition of acylation buffer and the amount of SAH produced determined according to manufacturer's instructions. Specific inhibition as that inhibited by a high concentration of tolcapone (10 μM; synthesised at UCB) and all experiments were validated using a control curve to tolcapone.
# The human S-COMT assay was performed as above except that 0.15 ng enzyme/well was incubated with SAM (20 μM final) and dopamine (100 μM final) for 15 min at 37° C. and SAH production determined.
# HTRF readings were performed using a Perkin Elmer Envision and results expressed as concentration of SAH produced using a standard curve. Results were analysed using non-linear regression to the 4-parameter logistic equation and pIC50 (−log 10 concentration of drug which inhibits enzyme activity/SAH production by 50%) determined.
row,Compound,Activity range (pIC50)
1,"CC(C)CS(=O)(=O)c1ccc(O)c2ncccc12 [Example 1, 5-isobutylsulfonylquinolin-8-ol]",+++ (three plus signs (+++) is associated with a pIC50 of above about 7)
2,"CCCCCCCCS(=O)(=O)c1ccc(O)c2ncccc12 [Example 2, 5-octylsulfonylquinolin-8-ol]",+++ (three plus signs (+++) is associated with a pIC50 of above about 7)
3,"O=S(=O)(c1ccc(O)c2ncccc12)C1CCOCC1 [Example 3, 5-tetrahydropyran-4-ylsulfonyquinolin-8-ol]",++ (two plus signs (++) is associated with a pIC50 of from about great than 6 to 7)
4,"C[C@@H]1CCCN1S(=O)(=O)c1ccc(O)c2ncccc12 [Example 5, 5-[(2R)-2-methylpyrrolidin-1-yl]sulfonylquinolin-8-ol]",+++ (three plus signs (+++) is associated with a pIC50 of above about 7)
5,C[C@H]1CCCN1S(=O)(=O)c1ccc(O)c2ncccc12 [Example 6],+++ (three plus signs (+++) is associated with a pIC50 of above about 7)
6,"O=S(=O)(c1cc(Cl)c(O)c2ncccc12)N1CCCC1 [Example 7, 7-chloro-5-pyrrolidin-1-ylsulfonyl-quinolin-8-ol]",++ (two plus signs (++) is associated with a pIC50 of from about great than 6 to 7)
7,"O=S(=O)(c1cc(Cl)c(O)c2ncccc12)C1CCCC1 [Example 8, 7-chloro-5-cyclopentylsulfonyl-quinolin-8-ol]",++ (two plus signs (++) is associated with a pIC50 of from about great than 6 to 7)
8,"O=S(=O)(c1ccc(F)cc1)c1cc(Cl)c(O)c2ncccc12 [Example 9, 7-chloro-5-(4-fluorophenyl)sulfonyl-quinolin-8-ol]",++ (two plus signs (++) is associated with a pIC50 of from about great than 6 to 7)
9,"O=S(=O)(c1cc(F)c(O)c2ncccc12)C1CCCC1 [Example 10, 7-fluoro-5-cyclopentylsulfonyl-quinolin-8-ol]",+++ (three plus signs (+++) is associated with a pIC50 of above about 7)
10,"CC(C)CS(=O)(=O)c1cc(Cl)c(O)c2ncccc12 [Example 11, 7-chloro-5-isobutylsulfonyl-quinolin-8-ol]",+ (a single plus (+) is associated with a pIC50 of from about 4.5 to 6)
11,"CC(C)S(=O)(=O)c1cc(Cl)c(O)c2ncccc12 [Example 12, 7-chloro-5-isopropylsulfonyl-quinolin-8-ol]",++ (two plus signs (++) is associated with a pIC50 of from about great than 6 to 7)
12,"O=S(=O)(c1cc(Cl)c(O)c2ncccc12)C1CCCCC1 [Example 13, 7-chloro-5-cyclohexylsulfonyl-quinolin-8-ol]",+++ (three plus signs (+++) is associated with a pIC50 of above about 7)
13,"O=S(=O)(c1ccc(F)cc1)c1cc(F)c(O)c2ncccc12 [Example 14, 7-fluoro-5-(4-fluorophenyl)sulfonyl-quinolin-8-ol]",++ (two plus signs (++) is associated with a pIC50 of from about great than 6 to 7)
14,"O=S(=O)(c1ccc(C(F)(F)F)cc1)c1cc(F)c(O)c2ncccc12 [Example 15, 7-fluoro-5-[4-(trifluoromethyl)phenyl]sulfonyl-quinolin-8-ol]",++ (two plus signs (++) is associated with a pIC50 of from about great than 6 to 7)
15,"O=S(=O)(c1ccccn1)c1cc(F)c(O)c2ncccc12 [Example 16, 7-fluoro-5-(2-pyridylsulfonyl)quinolin-8-ol]",++ (two plus signs (++) is associated with a pIC50 of from about great than 6 to 7)
16,"Cc1ccc(S(=O)(=O)c2cc(Cl)c(O)c3ncccc23)cc1C [Example 17, 7-chloro-5-(3,4-dimethylphenyl)sulfonyl-quinolin-8-ol]",++ (two plus signs (++) is associated with a pIC50 of from about great than 6 to 7)
17,"O=S(=O)(c1ccc(C(F)(F)F)cc1)c1cc(Cl)c(O)c2ncccc12 [Example 18, 7-chloro-5-[4-(trifluoromethyl)phenyl]sulfonyl-quinolin-8-ol]",++ (two plus signs (++) is associated with a pIC50 of from about great than 6 to 7)
18,"O=S(=O)(c1ccccn1)c1cc(Cl)c(O)c2ncccc12 [Example 19, 7-chloro-5-(2-pyridylsulfonyl)quinolin-8-ol]",++ (two plus signs (++) is associated with a pIC50 of from about great than 6 to 7)
19,"Cc1ccc(S(=O)(=O)c2cc(Cl)c(O)c3ncccc23)c(C)c1 [Example 20, 7-chloro-5-(2,4-dimethylphenyl)sulfonyl-quinolin-8-ol]",+++ (three plus signs (+++) is associated with a pIC50 of above about 7)
20,"O=S(=O)(c1cc(Cl)cc(Cl)c1)c1cc(Cl)c(O)c2ncccc12 [Example 21, 7-chloro-5-(3,5-dichlorophenyl)sulfonyl-quinolin-8-ol]",+ (a single plus (+) is associated with a pIC50 of from about 4.5 to 6)
21,"O=S(=O)(c1nccs1)c1cc(Cl)c(O)c2ncccc12 [Example 22, 7-chloro-5-thiazol-2-ylsulfonyl-quinolin-8-ol]",++ (two plus signs (++) is associated with a pIC50 of from about great than 6 to 7)
22,"Cc1cccc(S(=O)(=O)c2cc(Cl)c(O)c3ncccc23)c1 [Example 23, 7-chloro-5-(m-tolylsulfonyl)quinolin-8-ol]",++ (two plus signs (++) is associated with a pIC50 of from about great than 6 to 7)
23,"O=S(=O)(c1ccc(Cl)c(Cl)c1)c1cc(Cl)c(O)c2ncccc12 [Example 24, 7-chloro-5-(3,4-dichlorophenyl)sulfonyl-quinolin-8-ol]",++ (two plus signs (++) is associated with a pIC50 of from about great than 6 to 7)
24,"O=S(=O)(c1cccc(-c2ccccc2)c1)c1cc(Cl)c(O)c2ncccc12 [Example 25, 7-chloro-5-(3-phenylphenyl)sulfonyl-quinolin-8-ol]",++ (two plus signs (++) is associated with a pIC50 of from about great than 6 to 7)
25,"CC(C)(C)c1ccc(S(=O)(=O)c2cc(Cl)c(O)c3ncccc23)cc1 [Example 26, 5-(4-tert-butylphenyl)sulfonyl-7-chloro-quinolin-8-ol]",+ (a single plus (+) is associated with a pIC50 of from about 4.5 to 6)
26,"O=S(=O)(c1cccnc1)c1cc(Cl)c(O)c2ncccc12 [Example 27, 7-chloro-5-(3-pyridylsulfonyl)quinolin-8-ol]",+ (a single plus (+) is associated with a pIC50 of from about 4.5 to 6)
27,"O=S(=O)(c1ccc[n+]([O-])c1)c1cc(Cl)c(O)c2ncccc12 [Example 28, 7-chloro-5-(1-oxidopyridin-1-ium-3-yl)sulfonyl-quinolin-8-ol]",+ (a single plus (+) is associated with a pIC50 of from about 4.5 to 6)

# Test system: not given
# Assay: not given
# Settings: clinical use; Olanow and Watkins 2007; cited from earlier work
row,Compound,liver injury
1,Cc1ccc(C(=O)c2cc(O)c(O)c([N+](=O)[O-])c2)cc1 [tolcapone],"associated with serious liver injury, including three deaths"

# Test system: not given
# Assay: not given
# Settings: Russ, et al. 1999; cited from earlier work
row,Compound,brain penetration / levels in the brain
1,CCN(CC)C(=O)/C(C#N)=C/c1cc(O)c(O)c([N+](=O)[O-])c1 [entacapone],negligible brain penetration
2,Cc1ccc(C(=O)c2cc(O)c(O)c([N+](=O)[O-])c2)cc1 [tolcapone],low but measurable levels in the brain

# Target: T2, aromatic amino acid decarboxylase (AAAD) (Homo sapiens, UniProt P20711)
# T2 sequence (P20711 1-480): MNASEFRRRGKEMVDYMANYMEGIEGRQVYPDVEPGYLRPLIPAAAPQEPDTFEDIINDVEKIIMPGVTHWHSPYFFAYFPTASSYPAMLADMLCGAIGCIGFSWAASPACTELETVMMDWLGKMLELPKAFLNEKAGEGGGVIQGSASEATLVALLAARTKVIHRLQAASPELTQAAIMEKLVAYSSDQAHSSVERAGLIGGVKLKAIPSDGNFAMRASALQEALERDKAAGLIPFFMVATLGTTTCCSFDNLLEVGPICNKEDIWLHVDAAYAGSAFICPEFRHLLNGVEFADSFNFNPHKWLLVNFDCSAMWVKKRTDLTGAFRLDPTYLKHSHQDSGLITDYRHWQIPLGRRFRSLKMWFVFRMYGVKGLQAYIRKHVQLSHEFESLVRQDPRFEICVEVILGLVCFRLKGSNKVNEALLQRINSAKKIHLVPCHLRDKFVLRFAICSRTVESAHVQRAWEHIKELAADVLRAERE
# Assay: not given
# Settings: given with L-DOPA; Nutt, Woodward et al. 1985; cited from earlier work
row,Compound,reduction of the efficacious L-DOPA dose
1,C[C@@](Cc1ccc(O)c(O)c1)(NN)C(=O)O [Carbidopa],60-80%

# Test system: not given
# Assay: not given
# Settings: Nutt and Fellman 1984; cited from earlier work
row,Compound,percentage of exogenously administered L-DOPA that reaches the brain [%]
1,"N[C@@H](Cc1ccc(O)c(O)c1)C(=O)O [L-DOPA, L-dihydroxyphenylalanine]",~1
